According to patent publication US20020182655A1, “Method for identifying ligands for G protein-coupled receptors” (priority 2001, published 2002):

Assays:
hGPR 3 = hGPR 3 (Homo sapiens, UniProt P46089); experiment: Ca2+ FLIPR assay in HEK293 cells transiently transfected with hGPR 3; type: cell-based
Method: (§1) Transient transfections were carried out by incubating 5×10^5 HEK293 cells or 2×10^5 CHO-K1 cells in 6-well plates at 37° C. for 24 hours. The cells were then transfected with 1 to 2 μg of a vector, pcDNA 3.1, into which a GPR 3 gene was inserted by Hind III and Xba I sites, under the control of pcDNA 3.1. It is also expected that GPR 3, 6, or 12 may be cloned under control of the eukaryotic CMV promoter or of a control plasmid without corresponding cloned insert. The HEK293 cells were transfected with the aid of FuGene 6 transfection reagent (commercially available, for example from Roche Diagnostics) and the CHO cells were transfected with the aid of Lipofectamine reagent (commercially available, for example from GIBCO-BRL), in each case according to the manufacturer's instructions.
(§2) HEK293 cells were transferred to 96-well microtiter plates 24 hours after transient transfection. The cell density was 80,000 cells per well. The microtiter plates were coated with poly-D-lysine. […] The compounds to be analyzed, i.e., S1P, DHS1P, suramin, and compounds from the lipid library, were present as 2 mM stock solutions in DMSO (dimethyl sulfoxide). […]
(§3) The FLIPR was programmed such that 50 μl of the triple-concentrated suramin stock solution were added to the cells, leading to a final suramin concentration of 300 μM. Fluorescence was measured in 3 second intervals for the first 3 minutes and in 10 second intervals for the last 2 minutes. Ca^2+ signals of ligands were determined similarly.
(§4) The fluorescence data of the 18 to 36 second time interval were used to determine agonist activity.
(§5) Regarding the FLIPR assay, HEK293 cells were transferred to 96-well microtiter plates 24 hours after transient transfection. […] Compounds to be analyzed, e.g., S1P and DHS1 P, were added at this stage. Fluorescence was measured by means of a fluorometric imaging plate reader in 3 second intervals for the first 3 minutes and in 10 second intervals for the last 2 minutes. The fluorescence data of the 18 to 36 second time interval were used to determine agonist activity. […]

hGPR 6 = hGPR 6 (Homo sapiens, UniProt P46095); experiment: Ca2+ FLIPR assay in HEK293 cells transiently transfected with hGPR 6; type: cell-based
Sequence of hGPR 6 (P46095 whole entry): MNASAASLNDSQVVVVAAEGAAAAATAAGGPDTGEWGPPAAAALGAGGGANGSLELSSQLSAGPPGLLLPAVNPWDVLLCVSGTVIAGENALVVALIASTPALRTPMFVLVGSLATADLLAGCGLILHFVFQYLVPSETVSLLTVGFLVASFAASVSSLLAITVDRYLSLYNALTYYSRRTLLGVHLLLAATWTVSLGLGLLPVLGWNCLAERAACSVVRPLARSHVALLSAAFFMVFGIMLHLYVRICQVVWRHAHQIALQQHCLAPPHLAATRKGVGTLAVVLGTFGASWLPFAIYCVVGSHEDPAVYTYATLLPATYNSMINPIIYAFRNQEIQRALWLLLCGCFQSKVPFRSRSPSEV
Method: as §1, §2, §3, §4, §5

hGPR 12 = molecular target: T1, hGPR 12 (Homo sapiens, UniProt P47775); experiment: Ca2+ FLIPR assay in HEK293 cells transiently transfected with hGPR 12; type: cell-based
T1 sequence (P47775 1-334): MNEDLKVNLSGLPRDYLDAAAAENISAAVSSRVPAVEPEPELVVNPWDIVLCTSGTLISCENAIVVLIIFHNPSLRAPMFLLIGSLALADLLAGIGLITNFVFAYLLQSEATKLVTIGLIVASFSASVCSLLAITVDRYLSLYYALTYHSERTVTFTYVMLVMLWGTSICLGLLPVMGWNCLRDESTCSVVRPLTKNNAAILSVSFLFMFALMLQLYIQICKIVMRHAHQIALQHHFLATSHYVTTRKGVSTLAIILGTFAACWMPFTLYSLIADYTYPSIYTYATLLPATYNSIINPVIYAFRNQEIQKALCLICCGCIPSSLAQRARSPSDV
Method: as §1, §2, §3, §4, §5

HEK293 cells = experiment: Ca2+ release in HEK293 cells; type: cell-based, human; conditions: for sensitivity of induced Ca2+ release to pertussis toxin: signal runs via Gαi-type G proteins
Method: HEK293 cells were transferred to 96-well microtiter plates 24 hours after transient transfection. The cell density was 80,000 cells per well. The microtiter plates were coated with poly-D-lysine. The cells were kept in medium containing 1% (v/v) FCS (fetal calf serum) for 18 to 24 hours. After trypsinization, the cells were suspended in DMEM (Dulbecco's modified Eagle's medium) that also contained 25 mM HEPES (N-2-hydroxyethylpiperazine-N′-2-ethanesulfonic acid) pH 7.0, 1% (v/v) FCS, […] and 4 μM dye Fluo4 (fluorescent calcium indicator from Molecular Dynamics), and then incubated at 37° C. with 5% (v/v) CO2 for 1 hour. The cells were then washed 3 times with PBS (phosphate-buffered saline) containing 1 mM MgCl2, 1 mM EDTA and 0.4 mg/ml FAF-BSA (fatty acid-free bovine serum albumin). After the last washing step, the volume was 100 ,μl per […]. The compounds to be analyzed, i.e., S1P, DHS1P, suramin, and compounds from the lipid library, were present as 2 mM stock solutions in DMSO (dimethyl sulfoxide). These stock solutions were diluted 1:500 with the PBS solution containing 1 mM MgCl2, 1 mM EDTA and 0.4 mg/ml FAF-BSA. Lipids were present in the form of triple-concentrated 900 μM solutions prior to the assay. Suramin (Sigma) was prepared in the form of a triple-concentrated 900 μM solution in PBS containing 1 mM MgCl2, 1 EDTA, and 0.4 mg/ml FAF-BSA.
as §3, §4
Regarding the FLIPR assay, HEK293 cells were transferred to 96-well microtiter plates 24 hours after transient transfection. The cell density was 80,000 cells per well. The microtiter plates were coated with poly-D-lysine. The cells were kept in medium containing 1% (v/v) FCS (fetal calf serum) for 18 to 24 hours. […] Compounds to be analyzed, e.g., S1P and DHS1 P, were added at this stage. Fluorescence was measured by means of a fluorometric imaging plate reader in 3 second intervals for the first 3 minutes and in 10 second intervals for the last 2 minutes. The fluorescence data of the 18 to 36 second time interval were used to determine agonist activity. The reader itself equalizes internally the zero values.

Sequence of hGPR 3 (P46089 whole entry): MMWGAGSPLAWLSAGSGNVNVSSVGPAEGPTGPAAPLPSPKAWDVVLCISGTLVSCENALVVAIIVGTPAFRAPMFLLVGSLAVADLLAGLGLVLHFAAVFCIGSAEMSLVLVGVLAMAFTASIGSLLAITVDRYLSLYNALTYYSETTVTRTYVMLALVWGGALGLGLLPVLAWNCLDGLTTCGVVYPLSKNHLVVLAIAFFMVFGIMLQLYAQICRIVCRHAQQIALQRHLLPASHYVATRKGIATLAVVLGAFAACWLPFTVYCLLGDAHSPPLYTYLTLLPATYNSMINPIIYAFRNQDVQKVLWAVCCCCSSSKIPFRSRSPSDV

SMILES	identification as ligand (agonist activity, Ca2+ signal) (hGPR 3)	identification as ligand (agonist activity, Ca2+ signal) (hGPR 6)	identification as ligand (agonist activity, Ca2+ signal) (hGPR 12)	Ca2+ release (HEK293 cells)	sensitivity of induced Ca2+ release to pertussis toxin (HEK293 cells)	EC50 (hGPR 3; Ca2+ FLIPR) [nM]	EC50 (hGPR 6; Ca2+ FLIPR) [nM]	EC50 (hGPR 12; Ca2+ FLIPR) [nM]
CCCCCCCCCCCCCCC[C@@H](O)[C@@H](N)COP(=O)(O)O [DHS1P, dihydrosphingosine 1-phosphate]	physiological ligands	physiological ligands	physiological ligands	cause Ca^2+release	pertussis toxin-sensitive	–	–	–
CCCCCCCCCCCCC/C=C/[C@@H](O)[C@@H](N)COP(=O)(O)O [S1P, sphingosine 1-phosphate]	physiological ligands	physiological ligands	physiological ligands	cause Ca^2+release	pertussis toxin-sensitive	< 100	< 100	< 100
